Several values for one entry are separate records, joined by “and”; a condition that tells them apart may be missing. Equal values may be shown once.
How the values were obtained:
[1] = test system: monoclonal antibody specifically reactive with 2-amino-3-[2-(α-mannopyranosyl)indole-3-yl]propionic acid; assay: Confirming the specificity of the monoclonal antibody (competitive enzyme immunoassay, absorbance at 660 nm); assay type: binding, mouse; details: test samples at concentrations not more than 100 μg/ml; plate coated with BSA conjugate
Protocol: First, 50 μl of 2-amino-3-[2-(α-D-mannopyranosyl)indole-3-yl]propionic acid-BSA conjugate solution (20 μg/ml, 0.1M carbonate buffer, pH9.5) was dispensed into a 96-well microtiter plate (available from NUNC) and left to stand at 4° C. overnight. After washing the plate with PBS (×3), 250 μl of 1% BSA/PBS solution was dispensed into the plate and left to stand at room temperature for 1 hour. Then, the plate was washed with PBS (×3) to be used as a reaction plate. Next, 50 μl of 0.1M phosphate buffer (pH 7.4) containing varied concentrations of test sample/0.1% BSA was dispensed into the reaction plate into which 50 μl of the monoclonal antibody prepared in e. Purifying the antibodies above (0.1M phosphate buffer containing l10 ng/ml 0.1% BSA, pH7.4) was added while stirring. The mixture was allowed to react at room temperature for 3 hours. After the reaction was completed, the plate was washed with PBS containing 0.05% Tween 20 (5×), and then 50 μl of POD labeled-anti-mouse immunoglobulins-rabbit IgG (DAKO) was added to the plate for reaction at room temperature for 1 hour. […] Finally, 50 μl of reaction stopper (ethyldiethyldithiocarbamate) was added to the plate of which absorbance was then determined at 660 nm by a microplate reader.

[2] = GFR assay, comparative example: creatinine in the same samples by enzymatic assay kit, clearance (Example 8); assay type: in vivo, human
[3] = Assay of excreted amount in urine, comparative example: creatinine by enzymatic assay kit (Example 9); assay type: in vivo, human; details: healthy persons

SMILES | decrease in the absorbance (reaction with the antibody) [1] | creatinine in serum ([2]; Average of 18 subjects) [mg/dL] | creatinine in urine ([2]; Average of 18 subjects) [mg/dL] | creatinine in serum ([2]; individual subjects 1-18, patients with non-renal disease) | creatinine in urine ([2]; individual subjects 1-18, urine stored for 24 hours) | excreted amount in urine, average ([3]; female, age 0-10) [mg/day] | excreted amount in urine, average ([3]; female, age 0-90) [mg/day] | excreted amount in urine, average ([3]; female, age 10-30) [mg/day] | excreted amount in urine, average ([3]; female, age 30-50) [mg/day] | excreted amount in urine, average ([3]; female, age 50-70) [mg/day] | excreted amount in urine, average ([3]; female, age 70-90) [mg/day] | excreted amount in urine, average ([3]; male, age 0-10) [mg/day] | excreted amount in urine, average ([3]; male, age 0-90) [mg/day] | excreted amount in urine, average ([3]; male, age 10-30) [mg/day] | excreted amount in urine, average ([3]; male, age 50-70) [mg/day] | excreted amount in urine, average ([3]; male, age 70-90) [mg/day]
N[C@@H](Cc1c[nH]c2ccccc12)C(=O)O [L-tryptophan] | no decrease |  |  |  |  |  |  |  |  |  |  |  |  |  |  | 
O=C[C@@H](O)[C@@H](O)[C@H](O)[C@H](O)CO (racemic) [DL-mannose] | no decrease |  |  |  |  |  |  |  |  |  |  |  |  |  |  | 
CN1CC(=O)NC1=N [creatinine] |  | 0.65 | 72.12 | 0.61 mg/dl and 0.80 mg/dl (3×) and 0.50 mg/dl and 0.40 mg/dl (3×) and 0.70 mg/dl (4×) and 0.56 mg/dl and 0.72 mg/dl and 0.63 mg/dl and 0.64 mg/dl and 0.71 mg/dl and 0.84 mg/dl | 50.1 mg/dL and 48.9 mg/dL and 21.2 mg/dL and 51.9 mg/dL and 30.5 mg/dL and 70.2 mg/dL and 32.0 mg/dL and 74.1 mg/dL and 48.2 mg/dL and 138.8 mg/dL and 46.5 mg/dL and 100.2 mg/dL and 63.5 mg/dL and 142.0 mg/dL and 88.0 mg/dL and 69.9 mg/dL and 183.1 mg/dL and 39.0 mg/dL | 245 | 559 | 609 | 742 | 684 | 515 | 387 | 833 | 1066 | 893 | 599

— patent publication US6610502B1, “Compound 2-amino-3-[2-(α-mannopyranosyl)indol-3-yl]propionic acid, process for preparing the same, and method for inspecting function of living body with the novel compound” (Kyowa Medex Co., Ltd., priority 1997, dated 2003)
